This note sets out measurements from US10206394B2, “Herbicidal compounds” (Syngenta Participations AG, priority 2014, dated 2019).

Common to all, as to test: Glasshouse assay for herbicidal activity (pre- and post-emergence), percentage phytotoxicity
Type in all cases: in vivo

The subject of experiment [1] is Echinochloa crus-galli (ECHCG). The conditions noted are these: Echinochloa crus-galli, 250 g/ha. Put shortly:
(§1)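 Sow seed in standard soil in pots; apply test herbicide after 1 day (PRE) or about 12 days (POST). Grow on in the glasshouse, watering twice daily, cool-season species at 20/16 °C and warm-season at 24/18 °C. Score visible damage (0–100%) at 20 or 15 DAA respectively.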

Experiment [2] has as its system Alopecurus myosuroides (ALOMY). The conditions noted are these: Alopecurus myosuroides, 250 g/ha. Put shortly:
as §1

The next experiment deals with Lolium perenne (LOLPE). The conditions noted are these: Lolium perenne, 250 g/ha. A digest of the protocol: as §1
For a further experiment, the system named is Avena fatua (AVEFA). The conditions noted are these: Avena fatua, 250 g/ha. Put shortly: as §1
[3] abbreviates: post-emergence, 360 h, post-emergence, 15 DAA, visual score (100%=total damage; 0%=no damage), read-out: ECHCG POST herbicidal activity (percentage phytotoxicity).
[4] abbreviates: pre-emergence, 480 h, pre-emergence, 20 DAA, visual score (100%=total damage; 0%=no damage), read-out: ECHCG PRE herbicidal activity (percentage phytotoxicity).
Setting [5] is: post-emergence, 360 h, post-emergence, 15 DAA, visual score (100%=total damage; 0%=no damage), read-out: ALOMY POST herbicidal activity (percentage phytotoxicity).
The mark [6] stands for this setting: pre-emergence, 480 h, pre-emergence, 20 DAA, visual score (100%=total damage; 0%=no damage), read-out: ALOMY PRE herbicidal activity (percentage phytotoxicity).
[7] abbreviates: post-emergence, 360 h, post-emergence, 15 DAA, visual score (100%=total damage; 0%=no damage), read-out: LOLPE POST herbicidal activity (percentage phytotoxicity).
Setting [8] is: pre-emergence, 480 h, pre-emergence, 20 DAA, visual score (100%=total damage; 0%=no damage), read-out: LOLPE PRE herbicidal activity (percentage phytotoxicity).
[9] abbreviates: post-emergence, 360 h, post-emergence, 15 DAA, visual score (100%=total damage; 0%=no damage), read-out: AVEFA POST herbicidal activity (percentage phytotoxicity).
[10] abbreviates: pre-emergence, 480 h, pre-emergence, 20 DAA, visual score (100%=total damage; 0%=no damage), read-out: AVEFA PRE herbicidal activity (percentage phytotoxicity).
Where [11] appears, read: post-emergence, 360 h, post-emergence, 15 DAA, visual assessment (100%=total damage, 0%=no damage), read-out: Post-emergence herbicidal activity (percentage phytotoxicity) ECHCG POST.
Setting [12] is: pre-emergence, 480 h, pre-emergence, 20 DAA, visual assessment (100%=total damage, 0%=no damage), read-out: Pre-emergence herbicidal activity (percentage phytotoxicity) ECHCG PRE.
Setting [13] is: post-emergence, 360 h, post-emergence, 15 DAA, visual assessment (100%=total damage, 0%=no damage), read-out: Post-emergence herbicidal activity (percentage phytotoxicity) ALOMY POST.
Setting [14] is: pre-emergence, 480 h, pre-emergence, 20 DAA, visual assessment (100%=total damage, 0%=no damage), read-out: Pre-emergence herbicidal activity (percentage phytotoxicity) ALOMY PRE.
[15] abbreviates: post-emergence, 360 h, post-emergence, 15 DAA, visual assessment (100%=total damage, 0%=no damage), read-out: Post-emergence herbicidal activity (percentage phytotoxicity) LOLPE POST.
Where [16] appears, read: pre-emergence, 480 h, pre-emergence, 20 DAA, visual assessment (100%=total damage, 0%=no damage), read-out: Pre-emergence herbicidal activity (percentage phytotoxicity) LOLPE PRE.
Where [17] appears, read: post-emergence, 360 h, post-emergence, 15 DAA, visual assessment (100%=total damage, 0%=no damage), read-out: Post-emergence herbicidal activity (percentage phytotoxicity) AVEFA POST.
Setting [18] is: pre-emergence, 480 h, pre-emergence, 20 DAA, visual assessment (100%=total damage, 0%=no damage), read-out: Pre-emergence herbicidal activity (percentage phytotoxicity) AVEFA PRE.

Read-outs that look alike come from different tables or passages of the source.

Turning to `Cc1cc(C)c(C2C(=O)CC(CC(=O)NC3CC(F)(F)C3)C2=O)c(C)c1` (stereo not drawn) [Compound A185], the pest or weed control at 250 g/ha in experiment [1] (setting [3]) is 70%; in experiment [1] (setting [4]), 70%; in experiment [2] (setting [5]) it was 80%; in experiment [2] (setting [6]) it was 80%; in the experiment with Lolium perenne (LOLPE) (setting [7]), 70%; with Lolium perenne (LOLPE) (setting [8]), 70%. Also, the pest or weed control at 250 g/ha with Avena fatua (AVEFA) (setting [9]) was found to be 80%; in the experiment with Avena fatua (AVEFA) (setting [10]) it was 60%.

`Cc1cc(-c2nccs2)cc(C)c1C1C(=O)CC(CC(=O)NC(C)(C)C)C1=O` (stereo not drawn) [Compound A186]: the pest or weed control at 250 g/ha in experiment [1] (setting [3]) amounted to 80%; in experiment [1] (setting [4]), 70%; in experiment [2] (setting [5]), 40%; in experiment [2] (setting [6]), 40%; with Lolium perenne (LOLPE) (setting [7]), 60%; in the experiment on Lolium perenne (LOLPE) (setting [8]) it was 60%. For the same compound, the pest or weed control at 250 g/ha with Avena fatua (AVEFA) (setting [9]) is 30%; with Avena fatua (AVEFA) (setting [10]), 0%.

For the compound `Cc1cc(C)c(C2C(=O)CC(CC(N)=O)C2=O)c(C)c1` (stereo not drawn) [Compound A187], the pest or weed control at 250 g/ha in experiment [1] (setting [3]) worked out at 100%; in experiment [1] (setting [4]), 90%; in experiment [2] (setting [5]), 80%; in experiment [2] (setting [6]), 80%; with Lolium perenne (LOLPE) (setting [7]), 90%; with Lolium perenne (LOLPE) (setting [8]) it was 100%. The pest or weed control at 250 g/ha in the experiment on Avena fatua (AVEFA) (setting [9]) was found to be 100%; in the experiment on Avena fatua (AVEFA) (setting [10]), 90%.

With `Cc1cc(C)c(C2C(=O)CC(CC(=O)Nc3ccc(C#N)cc3)C2=O)c(C)c1` (stereo not drawn) [Compound B1], the pest or weed control at 250 g/ha in experiment [1] (setting [11]) was found to be 60%; in experiment [1] (setting [12]), 70%; in experiment [2] (setting [13]), 0%; in experiment [2] (setting [14]) it was 20%; with Lolium perenne (LOLPE) (setting [15]) it was 20%; in the experiment with Lolium perenne (LOLPE) (setting [16]), 20%. Further, the pest or weed control at 250 g/ha in the experiment on Avena fatua (AVEFA) (setting [17]) and with Avena fatua (AVEFA) (setting [18]) was 0% each time.

As to `COc1ccc(NC(=O)CC2CC(=O)C(c3c(C)cc(C)cc3C)C2=O)cc1OC` (stereo not drawn) [Compound B2], the pest or weed control at 250 g/ha amounted to 10% in experiment [1] (setting [11]); 80% in experiment [1] (setting [12]); 40% in experiment [2] (setting [13]); 40% in experiment [2] (setting [14]); 30% in the experiment with Lolium perenne (LOLPE) (setting [15]); 80% in the experiment on Lolium perenne (LOLPE) (setting [16]). Moreover, the pest or weed control at 250 g/ha was determined as 30% in the experiment on Avena fatua (AVEFA) (setting [17]) and 60% with Avena fatua (AVEFA) (setting [18]).

On to `Cc1cc(C)c(C2C(=O)CC(CC(=O)Nc3ccc(F)cc3F)C2=O)c(C)c1` (stereo not drawn) [Compound B3], for which the pest or weed control at 250 g/ha in experiment [1] (setting [11]) amounted to 70%; in experiment [1] (setting [12]), 90%; in experiment [2] (setting [13]), 0%; in experiment [2] (setting [14]), 60%; with Lolium perenne (LOLPE) (setting [15]), 80%; with Lolium perenne (LOLPE) (setting [16]), 90%. The pest or weed control at 250 g/ha stood at 10% in the experiment on Avena fatua (AVEFA) (setting [17]) and 50% with Avena fatua (AVEFA) (setting [18]).

On to `Cc1cc(-c2ncc(F)cn2)cc(C)c1C1C(=O)CC(CC(=O)NC(C)(C)C)C1=O` (stereo not drawn) [Compound B5], for which the pest or weed control at 250 g/ha was determined as 100% in experiment [1] (setting [11]); 100% in experiment [1] (setting [12]); 100% in experiment [2] (setting [13]); 100% in experiment [2] (setting [14]); 90% in the experiment on Lolium perenne (LOLPE) (setting [15]); 100% with Lolium perenne (LOLPE) (setting [16]). In addition, the pest or weed control at 250 g/ha came to 100% in the experiment with Avena fatua (AVEFA) (setting [17]) and 90% in the experiment on Avena fatua (AVEFA) (setting [18]).

For the compound `COCCOCCCNC(=O)CC1CC(=O)C(c2c(C)cc(C)cc2C)C1=O` (stereo not drawn) [Compound B7], the pest or weed control at 250 g/ha was 100% in experiment [1] (setting [11]); 80% in experiment [1] (setting [12]); 100% in experiment [2] (setting [13]); 100% in experiment [2] (setting [14]); 80% in the experiment with Lolium perenne (LOLPE) (setting [15]); 90% in the experiment on Lolium perenne (LOLPE) (setting [16]). The pest or weed control at 250 g/ha in the experiment with Avena fatua (AVEFA) (setting [17]) came to 100%; in the experiment with Avena fatua (AVEFA) (setting [18]), 90%.

Turning to `Cc1cc(C)c(C2C(=O)CC(CC(N)=O)C2=O)c(C)c1` (stereo not drawn) [Compound B8], the pest or weed control at 250 g/ha stood at 100% in experiment [1] (setting [11]); 90% in experiment [1] (setting [12]); 80% in experiment [2] (setting [13]); 80% in experiment [2] (setting [14]); 90% in the experiment with Lolium perenne (LOLPE) (setting [15]); 100% in the experiment with Lolium perenne (LOLPE) (setting [16]). In addition, the pest or weed control at 250 g/ha in the experiment with Avena fatua (AVEFA) (setting [17]) is 100%; with Avena fatua (AVEFA) (setting [18]), 90%.

Turning to `Cc1cc(C)c(C2C(=O)CC(CC(=O)NCc3cccc(C#N)c3)C2=O)c(C)c1` (stereo not drawn) [Compound B9], the pest or weed control at 250 g/ha in experiment [1] (setting [11]) was 70%; in experiment [1] (setting [12]), 100%; in experiment [2] (setting [13]) it was 70%; in experiment [2] (setting [14]), 70%; with Lolium perenne (LOLPE) (setting [15]), 70%; in the experiment with Lolium perenne (LOLPE) (setting [16]), 90%. For the same compound, the pest or weed control at 250 g/ha with Avena fatua (AVEFA) (setting [17]) and with Avena fatua (AVEFA) (setting [18]) was 70% throughout.

For the compound `COC(=O)c1cccc(CNC(=O)CC2CC(=O)C(c3c(C)cc(C)cc3C)C2=O)c1` (stereo not drawn) [Compound B10], the pest or weed control at 250 g/ha in experiment [1] (setting [11]) came out at 70%; in experiment [1] (setting [12]), 0%; in experiment [2] (setting [13]) it was 30%; in experiment [2] (setting [14]), 0%; with Lolium perenne (LOLPE) (setting [15]), 30%; in the experiment on Lolium perenne (LOLPE) (setting [16]), 0%. In addition, the results for the pest or weed control at 250 g/ha with Avena fatua (AVEFA) (setting [17]) and in the experiment on Avena fatua (AVEFA) (setting [18]) were 70% and 0%, respectively.

Regarding `COc1cccc(CNC(=O)CC2CC(=O)C(c3c(C)cc(C)cc3C)C2=O)c1` (stereo not drawn) [Compound B11], the pest or weed control at 250 g/ha in experiment [1] (setting [11]) came to 70%; in experiment [1] (setting [12]), 90%; in experiment [2] (setting [13]), 70%; in experiment [2] (setting [14]) it was 70%; with Lolium perenne (LOLPE) (setting [15]), 80%; with Lolium perenne (LOLPE) (setting [16]) it was 90%. Moreover, the pest or weed control at 250 g/ha in the experiment on Avena fatua (AVEFA) (setting [17]) and in the experiment with Avena fatua (AVEFA) (setting [18]) was 70% throughout.

With `Cc1cc(C)c(C2C(=O)CC(CC(=O)NCc3ccccc3C)C2=O)c(C)c1` (stereo not drawn) [Compound B12], the pest or weed control at 250 g/ha in experiment [1] (setting [11]) is 90%; in experiment [1] (setting [12]) it was 100%; in experiment [2] (setting [13]), 60%; in experiment [2] (setting [14]) it was 70%; in the experiment on Lolium perenne (LOLPE) (setting [15]), 90%; in the experiment on Lolium perenne (LOLPE) (setting [16]), 90%. Further, the pest or weed control at 250 g/ha in the experiment with Avena fatua (AVEFA) (setting [17]) was determined as 60%; in the experiment on Avena fatua (AVEFA) (setting [18]) it was 30%.

For the compound `Cc1cc(C)c(C2C(=O)CC(CC(=O)NCc3ccc(Cl)cc3)C2=O)c(C)c1` (stereo not drawn) [Compound B13], the pest or weed control at 250 g/ha in experiment [1] (setting [11]) amounted to 80%; in experiment [1] (setting [12]), 90%; in experiment [2] (setting [13]), 50%; in experiment [2] (setting [14]) it was 50%; with Lolium perenne (LOLPE) (setting [15]), 90%; with Lolium perenne (LOLPE) (setting [16]), 90%. For the same compound, the pest or weed control at 250 g/ha in the experiment with Avena fatua (AVEFA) (setting [17]) came out at 70%; in the experiment on Avena fatua (AVEFA) (setting [18]), 40%.

For `Cc1ccc(CNC(=O)CC2CC(=O)C(c3c(C)cc(C)cc3C)C2=O)cc1` (stereo not drawn) [Compound B14], the pest or weed control at 250 g/ha was 90% in experiment [1] (setting [11]); 70% in experiment [1] (setting [12]); 70% in experiment [2] (setting [13]); 70% in experiment [2] (setting [14]); 90% with Lolium perenne (LOLPE) (setting [15]); 90% with Lolium perenne (LOLPE) (setting [16]). Also, the pest or weed control at 250 g/ha was determined as 80% in the experiment with Avena fatua (AVEFA) (setting [17]) and 70% in the experiment with Avena fatua (AVEFA) (setting [18]).
